Earlier results on 2 compounds are cited in patent US11737988B2, “Anti-hypertensive and cholesterol-lowering fixed-dose combination and method of manufacture” (CardioPharma, Inc., priority 2019, dated 2023).

One may read the bioavailability as the share of a dose that reaches the circulation, judged against a reference dose that is usually intravenous.

For this data set the following is noted: cholesterol-lowering drugs (statins); known to those of skill in the art.

`COCc1c(C(C)C)nc(C(C)C)c(/C=C/[C@@H](O)C[C@@H](O)CC(=O)O)c1-c1ccc(F)cc1` [cerivastatin]: the bioavailability was 60%.
Take `O=C(O)C[C@H](O)C[C@H](O)/C=C/c1c(C2CC2)nc2ccccc2c1-c1ccc(F)cc1` [pitvastatin]: the bioavailability is given as 60%.
